From patent publication US11331328B2, “Compositions and methods for inhibiting antiapoptotic Bcl-2 proteins as anti-aging agents” (priority 2014, dated 2022) come the findings set out here.

Structures are written as SMILES.

Assay [1] has as its system human renal epithelial cells (REC). The assay can be described thus: Cell viability, IR-SC vs NC, renal epithelial cells. Conditions: increasing concentrations, 72 h. The class given is cell-based. The method, then:
(§1) Human WI-38 fibroblasts (WI38 cells, #CCL-75™), human IMR-90 fibroblasts (IMR90 cells, #CCL-186™), human renal epithelial cells (REC cells, #PCS-400-012™) were obtained from ACTT (Manassas, Va., USA). Mouse embryonic fibroblasts (MEF) were isolated from mouse embryos as described^1. All cells were cultured in a complete medium (CM) (Dulbecco's Modified Eagle Medium supplemented with 10% fetal bovine serum [FBS], 100 U/ml penicillin, and 100 μg/ml streptomycin [all from Atlanta Biologicals, Norcross, Ga., and USA]) in a humidified incubator at 37° C. and 5% CO2. Low passages of WI-38 cells (<25), IMR-90 (<25), REC cells (<25) and MEF (<3) were used as non-senescent controls or for induction of senescence to avoid replicative senescence. To induce replicative senescence, WI-38 cells were subcultivated until cell division ceased after about 38 passages or 60 population doublings (FIG. 5)^2. […]
(§2) Flow cytometry: Non-senescent and senescent cells were seeded into wells of 24- or 48-well at about 70% of confluence. […] Viable cells (PI^− cells) were numerated by flow cytometry at a constant flow rate and calculated as a percentage of control cells treated with vehicle using the formula: percentage of control=(Ndrug/NC)×100, where Ndrug and NC represent the absolute number of PI^− viable cells of drug-treated and vehicle-treated cells, respectively.

Assay [2] has as its system mouse embryonic fibroblasts (MEF). Kind of assay: Cell viability, IR-SC vs NC, mouse embryonic fibroblasts. In kind it is cell-based. As to conditions: increasing concentrations, 72 h. How it is done: as §1, §2
Assay [3] deals with IL-1α, TNFα, CCL-5, CXCL-10 mRNA. The assay can be described thus: SASP mRNA levels in lungs of TBI p16-3MR mice (qRT-PCR). In kind it is in vivo, mouse. As to conditions: 6 Gy TBI; 2 treatment cycles. How it is done: To measure p21 and GAPDH mRNA levels in WI-38 cells and IL-1α, TNFα, CCL-5, and CXCL-10 mRNA levels in mouse tissues, SYBR assay kit was used (Applied biosystems in life technologies). Briefly, 1 μl cDNA was mixed with 7.5 μl SYBR Green PCR Master Mix and 0.2 μl of primers (Table 5). Samples were then added with 6.30 μl of H2O to give a total 15 μl of mixture. qPCR conditions were as follows: 95° C. for 10 min, 40×(95° C. for 15 s and 60° C. for 1 min), 95° C. for […], 95° C. for 15 min. All reactions were run in triplicate on an ABI StepOnePlus Real-Time PCR System.
For orientation: In qPCR the cycle at which signal appears reflects the starting amount.

As for `CC1(C)CCC(c2ccc(Cl)cc2)=C(CN2CCN(c3ccc(C(=O)NS(=O)(=O)c4ccc(N[C@H](CCN5CCOCC5)CSc5ccccc5)c(S(=O)(=O)C(F)(F)F)c4)cc3)CC2)C1` [ABT263, navitoclax], the “viable cells, IR-SC vs NC” value in assay [1] and in assay [2] was “kills IR-induced senescent cells (IR-SC) but not non-senescent cells (NC)” in each case. In addition, the SASP in lungs entry in assay [3] is “suppressed the SASP induced by TBI”.
